Measurements: patent US12371428B2 (Exelixis, Inc., priority 2019, dated 2025)

What was measured:
[1] = target: Human KDR (residues 790-1356) (Homo sapiens (Human), UniProt P35968); assay: Human KDR kinase assay, HTRF KinEase (Example B-2); format: biochemical
Summary of the method: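 Ten compound concentrations (3% DMSO final) were pre-plated, then KDR (790-1356) with biotinylated peptide in Mg/Mn/DTT buffer was added; ATP at Km (4.0 μM) started a 40 min room-temperature reaction. Detection used Eu-TK antibody and SA-XL665 in EDTA buffer; activity normalized to DMSO and reference inhibitor, IC50 by logistic fit.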

[2] = target: Mer (phospho-Mer, MERTK-transfected 293A cells) (Homo sapiens (Human), UniProt Q12866); assay: Mer autophosphorylation ELISA in transient transfected 293A cells (Example H); format: cell-based; conditions: cellular activity; Mer autophosphorylation ELISA in transient transfected 293A cells
Chain of Mer (phospho-Mer, MERTK-transfected 293A cells) (Q12866 21-999): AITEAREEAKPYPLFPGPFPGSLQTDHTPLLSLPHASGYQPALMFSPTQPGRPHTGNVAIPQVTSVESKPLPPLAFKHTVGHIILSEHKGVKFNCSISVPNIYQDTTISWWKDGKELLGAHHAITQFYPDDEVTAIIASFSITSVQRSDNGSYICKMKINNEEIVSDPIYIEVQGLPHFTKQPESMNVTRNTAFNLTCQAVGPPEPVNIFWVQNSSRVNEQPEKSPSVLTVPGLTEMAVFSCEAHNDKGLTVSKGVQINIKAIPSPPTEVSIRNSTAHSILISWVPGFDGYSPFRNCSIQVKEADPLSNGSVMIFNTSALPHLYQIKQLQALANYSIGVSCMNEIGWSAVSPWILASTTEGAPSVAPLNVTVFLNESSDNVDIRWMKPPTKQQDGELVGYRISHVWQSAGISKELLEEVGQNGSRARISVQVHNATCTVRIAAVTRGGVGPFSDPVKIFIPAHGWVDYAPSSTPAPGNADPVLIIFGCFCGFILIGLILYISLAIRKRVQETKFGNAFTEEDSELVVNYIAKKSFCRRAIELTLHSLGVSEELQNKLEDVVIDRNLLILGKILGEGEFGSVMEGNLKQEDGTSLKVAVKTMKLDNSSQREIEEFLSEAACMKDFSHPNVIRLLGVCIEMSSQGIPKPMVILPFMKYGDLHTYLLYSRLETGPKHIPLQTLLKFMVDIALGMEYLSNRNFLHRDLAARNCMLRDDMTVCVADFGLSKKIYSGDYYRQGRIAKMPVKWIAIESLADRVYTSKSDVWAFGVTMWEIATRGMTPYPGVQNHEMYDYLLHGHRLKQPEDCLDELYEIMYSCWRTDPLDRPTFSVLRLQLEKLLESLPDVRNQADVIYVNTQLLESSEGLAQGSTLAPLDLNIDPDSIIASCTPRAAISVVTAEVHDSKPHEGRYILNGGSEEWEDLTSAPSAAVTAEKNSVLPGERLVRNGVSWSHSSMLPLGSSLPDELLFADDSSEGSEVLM
Summary of the method: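 IC50 from phospho-Mer ELISA of MERTK-transfected 293A cell lysates after 1 h treatment with serially diluted compound in serum-free medium.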

[3] = protocol of Example B-2 (other compounds)

Chain of Human KDR (residues 790-1356) (P35968 790-1356): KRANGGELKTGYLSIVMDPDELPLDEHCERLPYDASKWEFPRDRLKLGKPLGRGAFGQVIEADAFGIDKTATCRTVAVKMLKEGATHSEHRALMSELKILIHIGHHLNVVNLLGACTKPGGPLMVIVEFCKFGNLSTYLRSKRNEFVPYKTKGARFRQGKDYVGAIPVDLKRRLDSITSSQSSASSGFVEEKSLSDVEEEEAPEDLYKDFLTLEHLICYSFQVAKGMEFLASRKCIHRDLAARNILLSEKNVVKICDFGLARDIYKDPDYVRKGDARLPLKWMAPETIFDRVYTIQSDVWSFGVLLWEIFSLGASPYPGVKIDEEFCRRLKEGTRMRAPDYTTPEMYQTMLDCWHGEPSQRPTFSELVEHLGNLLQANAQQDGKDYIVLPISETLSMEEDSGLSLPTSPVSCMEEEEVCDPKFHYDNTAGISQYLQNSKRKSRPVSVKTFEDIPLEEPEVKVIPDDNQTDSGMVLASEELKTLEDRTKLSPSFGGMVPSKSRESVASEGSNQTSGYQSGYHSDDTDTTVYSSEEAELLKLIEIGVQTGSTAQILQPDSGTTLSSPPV

IC50 ([1]; protocol of Example B-2) [nM] | IC50 [2] [nM] | IC50 [1, 3] [nM] | SMILES
< 100 | < 100 |  | COc1cnc2c(Oc3ccc(NC(=O)c4nn(C)c(C)c(-c5ccc(F)cc5C)c4=O)cc3)ccnc2c1 [Compound 514, 5-(4-fluoro-2-methylphenyl)-N-[4-[(7-methoxy-1,5-naphthyridin-4-yl)oxy]phenyl]-1,6-dimethyl-4-oxopyridazine-3-carboxamide]
> 300 | < 100 |  | CCn1cc(C(=O)Nc2ccc(Oc3ccnc4cc(OC)cnc34)c(F)c2)c(=O)c(-c2ccc(F)cc2)c1CF [Compound 559, 1-Ethyl-N-[3-fluoro-4-[(7-methoxy-1,5-naphthyridin-4-yl)oxy]phenyl]-6-(fluoromethyl)-5-(4-fluorophenyl)-4-oxopyridine-3-carboxamide]
< 100 | < 100 |  | C=C(C)c1cnc2c(Oc3ccc(NC(=O)c4c(C)cc(C)n(-c5ccc(F)cc5)c4=O)cc3F)ccnc2c1 [Compound 457, 1-(4-fluorophenyl)-N-[3-fluoro-4-[(7-prop-1-en-2-yl-1,5-naphthyridin-4-yl)oxy]phenyl]-4,6-dimethyl-2-oxopyridine-3-carboxamide]
> 300 | < 100 |  | CNc1nccc2c(Oc3ccc(NC(=O)c4cnc(C)n(-c5ccc(F)cc5)c4=O)cc3)ccnc12 [Compound 543, 1-(4-fluorophenyl)-2-methyl-N-[4-[[8-(methylamino)-1,7-naphthyridin-4-yl)oxy]phenyl]-6-oxopyrimidine-5-carboxamide]
100 to 300 | < 100 |  | COc1ccc2nccc(Oc3ccc(NC(=O)c4c(C)ncc(-c5ccc(F)cc5C)c4O)cc3F)c2n1 [Compound 480, N-[3-fluoro-4-[(6-methoxy-1,5-naphthyridin-4-yl)oxy]phenyl]-5-(4-fluoro-2-methylphenyl)-4-hydroxy-2-methylpyridine-3-carboxamide]
< 100 | < 100 |  | COc1cnc2c(Oc3ccc(NC(=O)c4nnc(C)c(-c5ccc(F)cc5)c4OC)cc3)ccnc2c1 [Compound 515, 5-(4-fluorophenyl)-4-methoxy-N-[4-[(7-methoxy-1,5-naphthyridin-4-yl)oxy]phenyl]-6-methylpyridazine-3-carboxamide]
 | < 100 | > 300 | COc1cnc2c(Oc3ccc(NC(=O)c4cn(C)c(C)c(-c5ccc(F)cc5C)c4=O)cc3)ccnc2c1 [Compound 187, 5-(4-Fluoro-2-methylphenyl)-N-[4-[(7-methoxy-1,5-naphthyridin-4-yl)oxy]phenyl]-1,6-dimethyl-4-oxopyridine-3-carboxamide]
> 300 | < 100 |  | COc1cc2nccc(Oc3ccc(NC(=O)c4cc(C)nn(-c5ccc(F)cc5)c4=O)cc3)c2nc1OC [Compound 520, N-[4-[(6,7-dimethoxy-1,5-naphthyridin-4-yl)oxy]phenyl]-2-(4-fluorophenyl)-6-methyl-3-oxopyridazine-4-carboxamide]
100 to 300 | < 100 |  | COc1cc2nccc(Oc3cc(F)c(NC(=O)c4cnc(C)c(-c5ccc(F)cc5)c4O)cc3F)c2nc1C [Compound 542, N-[2,5-difluoro-4-[(7-methoxy-6-methyl-1,5-naphthyridin-4-yl)oxy]phenyl]-5-(4-fluorophenyl)-4-hydroxy-6-methylpyridine-3-carboxamide]
< 100 | < 100 |  | COc1cc2nccc(Oc3ccc(NC(=O)c4nn(C)c(C)c(-c5ccc(F)cc5C)c4=O)cc3F)c2nc1OC [Compound 512, N-[4-[(6,7-dimethoxy-1,5-naphthyridin-4-yl)oxy]-3-fluorophenyl]-5-(4-fluoro-2-methylphenyl)-1,6-dimethyl-4-oxopyridazine-3-carboxamide]
> 300 | < 100 |  | CCn1cc(C(=O)Nc2ccc(Oc3ccnc4cc(OC)c(OC)nc34)cc2)c(=O)c(-c2ccc(F)cc2)c1CF [Compound 558, N-[4-[(6,7-Dimethoxy-1,5-naphthyridin-4-yl)oxy]phenyl]-1-ethyl-6-(fluoromethyl)-5-(4-fluorophenyl)-4-oxopyridine-3-carboxamide]
< 100 | < 100 |  | COc1cc2nccc(Oc3ccc(NC(=O)c4nn(C)c(C)c(-c5ccc(F)cc5C)c4=O)cc3)c2nc1OC [Compound 517, N-[4-[(6,7-dimethoxy-1,5-naphthyridin-4-yl)oxy]phenyl]-5-(4-fluoro-2-methylphenyl)-1,6-dimethyl-4-oxopyridazine-3-carboxamide]
< 100 | < 100 |  | COCCOc1cnc2c(Oc3ccc(NC(=O)c4c(C)nc(C)c(-c5ccc(F)cc5)c4O)cc3F)ccnc2c1 [Compound 555, N-[3-Fluoro-4-[[7-(2-methoxyethoxy)-1,5-naphthyridin-4-yl]oxy]phenyl]-5-(4-fluorophenyl)-4-hydroxy-2,6-dimethylpyridine-3-carboxamide]
> 300 | < 100 |  | COCc1nc(C)c(-c2ccc(F)cc2)c(O)c1C(=O)Nc1ccc(Oc2ccnc3ccc(OC)cc23)c(F)c1 [Compound 525, N-[3-fluoro-4-(6-methoxyquinolin-4-yl)oxyphenyl]-5-(4-fluorophenyl)-4-hydroxy-2-(methoxymethyl)-6-methylpyridine-3-carboxamide]
100 to 300 | < 100 |  | C=C(C)c1cnc2c(Oc3ccc(NC(=O)c4cnc(C)c(-c5ccc(F)cc5C)c4O)cc3)ccnc2c1 [Compound 448, 5-(4-fluoro-2-methylphenyl)-4-hydroxy-6-methyl-N-[4-[(7-prop-1-en-2-yl-1,5-naphthyridin-4-yl)oxy]phenyl]pyridine-3-carboxamide]
> 300 | < 100 |  | CCc1nc(C)c(-c2ccc(F)cc2C)c(O)c1C(=O)Nc1ccc(Oc2ccnc3ccc(OC)nc23)cc1 [Compound 526, 2-ethyl-5-(4-fluoro-2-methylphenyl)-4-hydroxy-N-[4-[(6-methoxy-1,5-naphthyridin-4-yl)oxy]phenyl]-6-methylpyridine-3-carboxamide]
< 100 | < 100 |  | C=C(C)c1cnc2c(Oc3ccc(NC(=O)c4c(C)nc(C)c(-c5ccc(F)cc5)c4O)cc3)ccnc2c1 [Compound 455, 5-(4-fluorophenyl)-4-hydroxy-2,6-dimethyl-N-[4-[(7-prop-1-en-2-yl-1,5-naphthyridin-4-yl)oxy]phenyl]pyridine-3-carboxamide]
> 300 | < 100 |  | Cc1ccc2nccc(Oc3ccc(NC(=O)c4c(C)nc(C)c(-c5ccc(F)cc5C)c4O)cc3F)c2n1 [Compound 506, N-[3-fluoro-4-[(6-methyl-1,5-naphthyridin-4-yl)oxy]phenyl]-5-(4-fluoro-2-methylphenyl)-4-hydroxy-2,6-dimethylpyridine-3-carboxamide]
< 100 | < 100 |  | COc1cc2nccc(Oc3ccc(NC(=O)c4cn(C)cc(-c5ccc(F)cc5C)c4=O)cc3F)c2nc1OC [Compound 503, N-[4-[(6,7-dimethoxy-1,5-naphthyridin-4-yl)oxy]-3-fluorophenyl]-5-(4-fluoro-2-methylphenyl)-1-methyl-4-oxopyridine-3-carboxamide]
 | < 100 | > 300 | COc1cc2ncnc(Oc3ccc(NC(=O)c4c5n(cc(-c6ccc(F)cc6)c4=O)CCC5)cc3F)c2cc1OC [Compound 406, N-[4-(6,7-dimethoxyquinazolin-4-yl)oxy-3-fluorophenyl]-6-(4-fluorophenyl)-7-oxo-2,3-dihydro-1H-indolizine-8-carboxamide]
